Measurements reported in patent US11142526B2, “Spirocycle compounds and methods of making and using same” (H. Lundbeck A/S, priority 2017, dated 2021).
Read-outs that look alike come from different tables or passages of the source.

Experiments:
[1] = molecular target: MAGL (Homo sapiens (Human), UniProt Q99685); assay: In vitro competitive activity-based protein profiling (gel-based, FP-Rh or HT-01 probe); format: biochemical; conditions: for IC50: read-out: MAGL Human PC3 (IC50)
Description: In Vitro Competitive Activity-Based Protein Profiling.
Proteomes (human prefrontal cortex or cell membrane fractions) (50 μL, 1.0 mg/mL total protein concentration) were preincubated with varying concentrations of inhibitors at 37° C. After 30 min, FP-Rh or HT-01 (1.0 μL, 50 μM in DMSO) was added and the mixture was incubated for another 30 min at room temperature. Reactions were quenched with SDS loading buffer (15 μL—4×) and run on SDS-PAGE.

[2] = molecular target: MAGL (Mus musculus (Mouse), UniProt O35678); assay: In vitro competitive activity-based protein profiling, mouse brain proteome; format: biochemical; conditions: for inhibition at 1 µM: mouse; for IC50: mouse brain
Chain of MAGL (Mus musculus (Mouse), UniProt O35678) (O35678 whole entry): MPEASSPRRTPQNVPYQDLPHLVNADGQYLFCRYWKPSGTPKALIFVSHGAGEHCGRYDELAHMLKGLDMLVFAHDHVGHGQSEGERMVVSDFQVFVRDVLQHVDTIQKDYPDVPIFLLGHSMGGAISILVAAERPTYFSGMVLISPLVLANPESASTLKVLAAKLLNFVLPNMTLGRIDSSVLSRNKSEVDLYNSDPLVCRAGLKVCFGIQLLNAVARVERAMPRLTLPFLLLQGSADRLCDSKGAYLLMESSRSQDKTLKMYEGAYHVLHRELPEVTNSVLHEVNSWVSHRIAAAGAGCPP

[3] = human PC3, read-out: MAGL % Inhibition at 1 μM (human PC3)
[4] = human PFC (prefrontal cortex), read-out: MAGL % Inhibition at 1 μM (human PFC)

Chain of MAGL (Homo sapiens (Human), UniProt Q99685) (Q99685 whole entry): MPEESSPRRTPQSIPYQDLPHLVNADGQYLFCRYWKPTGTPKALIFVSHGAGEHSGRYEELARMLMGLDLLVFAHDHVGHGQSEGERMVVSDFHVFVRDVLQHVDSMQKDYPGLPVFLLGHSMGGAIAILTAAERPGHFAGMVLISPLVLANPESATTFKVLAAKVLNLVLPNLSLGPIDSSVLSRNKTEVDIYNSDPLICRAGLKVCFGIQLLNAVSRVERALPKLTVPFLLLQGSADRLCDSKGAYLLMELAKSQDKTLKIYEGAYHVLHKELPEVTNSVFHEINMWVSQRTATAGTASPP

CC1(NC(=O)c2cn3c(n2)CN(C2CCC2)CC3)CCN(C(=O)OC(C(F)(F)F)C(F)(F)F)CC1 [Example 183, 1,1,1,3,3,3-Hexafluoropropan-2-yl 4-(7-cyclobutyl-5,6,7,8-tetrahydroimidazo[1,2-a]pyrazine-2-carboxamido)-4-methylpiperidine-1-carboxylate]
inhibition at 1 µM [1, 3]: > 75% | inhibition at 1 µM [1, 4]: > 75% | IC50 ([1]; human PC3): < 0.1 µM

O=C(OC(C(F)(F)F)C(F)(F)F)N1CCC2(CCN(Cc3ccnnc3)C2)CC1 [Example 106, 1,1,1,3,3,3-Hexafluoropropan-2-yl 2-(pyridazin-4-ylmethyl)-2,8-diazaspiro [4.5]decane-8-carboxylate]
inhibition at 1 µM [1, 4]: > 75%

O=C(Cc1nc(C(F)(F)F)ccc1CN1CCCC12CCN(C(=O)OC(C(F)(F)F)C(F)(F)F)CC2)NS(=O)(=O)C1CC1 [Example 35, 1,1,1,3,3,3-Hexafluoropropan-2-yl 1-((2-(2-(cyclopropanesulfonamido)-2-oxoethyl)-6-(trifluoromethyl)pyridin-3-yl)methyl)-1,8-diazaspiro[4.5]decane-8-carboxylate]
inhibition at 1 µM [1, 3]: > 75%

O=C(OC(C(F)(F)F)C(F)(F)F)N1CCC2(CCCN2C(=O)c2cc3c(s2)CCNC3)CC1 [Example 152, 1,1,1,3,3,3-Hexafluoropropan-2-yl 1-(4,5,6,7-tetrahydrothieno[3,2-c]pyridine-2-carbonyl)-1,8-diazaspiro[4.5] decane-8-carboxylate]
IC50 ([1]; human PC3): < 0.1 µM

O=C(OC(C(F)(F)F)C(F)(F)F)N1CCC2(CCCN2C(=O)C(F)(F)c2ncccn2)CC1 [Example 32, 1,1,1,3,3,3-Hexafluoropropan-2-yl 1-(2,2-difluoro-2-(pyrimidin-2-yl)acetyl)-1,8-diazaspiro[4.5]decane-8-carboxylate]
inhibition at 1 µM [1, 3]: > 75% | inhibition at 1 µM [1, 4]: > 75% | IC50 ([1]; human PC3): < 0.1 µM

O=C(OC(C(F)(F)F)C(F)(F)F)N1CCC2(CCCN2C(=O)c2nc3n(n2)CCCN3)CC1 [Example 153, 1,1,1,3,3,3-Hexafluoropropan-2-yl 1-(4,5,6,7-tetrahydro-[1,2,4]triazolo[1,5-a]pyrimidine-2-carbonyl)-1,8-diazaspiro[4.5]decane-8-carboxylate]
IC50 ([1]; human PC3): < 0.1 µM

O=C(OC(C(F)(F)F)C(F)(F)F)N1CCC2(CCCN2Cc2cc(-c3ccc(Cl)cc3)on2)CC1 [Example 47, 1,1,1,3,3,3-Hexafluoropropan-2-yl 1-((5-(4-chlorophenyl)isoxazol-3-yl)methyl)-1,8-diazaspiro[4.5] decane-8-carboxylate]
inhibition at 1 µM [2]: > 75% | IC50 [2]: < 0.1 µM

O=C(OC(C(F)(F)F)C(F)(F)F)N1CCC2(CCCN2C(=O)c2cccnc2)CC1 [Example 13, 1,1,1,3,3,3-Hexafluoropropan-2-yl 1-nicotinoyl-1,8-diazaspiro[4.5]decane-8-carboxylate]
inhibition at 1 µM [2]: > 75%

O=C(OC(C(F)(F)F)C(F)(F)F)N1CCC2(CCCN2C(=O)C(F)(F)c2cnccn2)CC1 [Example 197, 1,1,1,3,3,3-Hexafluoropropan-2-yl 1-(2,2-difluoro-2-(pyrazin-2-yl)acetyl)-1,8-diazaspiro[4.5] decane-8-carboxylate]
inhibition at 1 µM [1, 3]: > 75% | inhibition at 1 µM [1, 4]: > 75%

Cc1ccc2[nH]c(C(=O)N3CCCC34CCN(C(=O)OC(C(F)(F)F)C(F)(F)F)CC4)cc2c1 [Example 14, 1,1,1,3,3,3-Hexafluoropropan-2-yl 1-(5-methyl-1H-indole-2-carbonyl)-1,8-diazaspiro[4.5]decane-8-carboxylate]
inhibition at 1 µM [2]: > 75% | IC50 [2]: < 0.1 µM

O=C(OC(C(F)(F)F)C(F)(F)F)N1CCC2(CCCN2C(=O)c2cc3ccccc3o2)CC1 [Example 83, 1,1,1,3,3,3-Hexafluoropropan-2-yl 1-(benzofuran-2-carbonyl)-1,8-diazaspiro[4.5] decane-8-carboxylate]
inhibition at 1 µM [2]: > 75% | IC50 [2]: < 0.1 µM

O=C(OC(C(F)(F)F)C(F)(F)F)N1CCC2(CCCN2C(=O)c2cnn(-c3ccccc3)c2)CC1 [Example 72, 1,1,1,3,3,3-Hexafluoropropan-2-yl 1-(1-phenyl-1H-pyrazole-4-carbonyl)-1,8-diazaspiro[4.5] decane-8-carboxylate]
inhibition at 1 µM [2]: > 75% | IC50 [2]: < 0.1 µM

O=C(OC(C(F)(F)F)C(F)(F)F)N1CCC2(CCCN2Cc2c[nH]c3cccc(Cl)c23)CC1 [Example 45, 1,1,1,3,3,3-Hexafluoropropan-2-yl 1-((4-chloro-1H-indol-3-yl)methyl)-1,8-diazaspiro[4.5] decane-8-carboxylate]
IC50 [2]: 0.1 to 1 µM

Cc1cccc2cc(C(=O)N3CCCC34CCN(C(=O)OC(C(F)(F)F)C(F)(F)F)CC4)[nH]c12 [Example 108, 1,1,1,3,3,3-Hexafluoropropan-2-yl 1-(7-methyl-1H-indole-2-carbonyl)-1,8-diazaspiro[4.5] decane-8-carboxylate]
inhibition at 1 µM [2]: > 75% | IC50 [2]: < 0.1 µM

O=C(OC(C(F)(F)F)C(F)(F)F)N1CCC2(CCN(Cc3cccnc3)C2)CC1 [Example 64, 1,1,1,3,3,3-Hexafluoropropan-2-yl 2-(pyridin-3-ylmethyl)-2,8-diazaspiro[4.5] decane-8-carboxylate]
inhibition at 1 µM [2]: > 75% | IC50 [2]: 0.1 to 1 µM

O=C(OC(C(F)(F)F)C(F)(F)F)N1CCC2(CCN(Cc3cncnc3)C2)CC1 [Example 67, 1,1,1,3,3,3-Hexafluoropropan-2-yl 2-(pyrimidin-5-ylmethyl)-2,8-diazaspiro[4.5] decane-8-carboxylate]
inhibition at 1 µM [2]: > 75% | IC50 [2]: 0.1 to 1 µM

O=C(OC(C(F)(F)F)C(F)(F)F)N1CCC2(CCCN2C(=O)c2cc3cc(Cl)ccc3s2)CC1 [Example 95, 1,1,1,3,3,3-Hexafluoropropan-2-yl 1-(5-chlorobenzo[b]thiophene-2-carbonyl)-1,8-diazaspiro[4.5] decane-8-carboxylate]
inhibition at 1 µM [2]: > 75% | IC50 [2]: < 0.1 µM

CC(C)n1ccc(C(=O)N2CCCC23CCN(C(=O)OC(C(F)(F)F)C(F)(F)F)CC3)n1 [Example 81, 1,1,1,3,3,3-Hexafluoropropan-2-yl 1-(1-isopropyl-1H-pyrazole-3-carbonyl)-1,8-diazaspiro[4.5] decane-8-carboxylate]
inhibition at 1 µM [2]: > 75% | IC50 [2]: < 0.1 µM

Cc1c(CN2CCCC23CCN(C(=O)OC(C(F)(F)F)C(F)(F)F)CC3)[nH]c2ccc(Cl)cc12 [Example 48, 1,1,1,3,3,3-Hexafluoropropan-2-yl 1-((5-chloro-3-methyl-1H-indol-2-yl)methyl)-1,8-diazaspiro[4.5] decane-8-carboxylate]
inhibition at 1 µM [2]: > 75%

COc1cccc2cc(CN3CCCC34CCN(C(=O)OC(C(F)(F)F)C(F)(F)F)CC4)[nH]c12 [Example 53, 1,1,1,3,3,3-Hexafluoropropan-2-yl 1-((7-methoxy-1H-indol-2-yl)methyl)-1,8-diazaspiro[4.5] decane-8-carboxylate]
inhibition at 1 µM [2]: > 75%

O=C(OC(C(F)(F)F)C(F)(F)F)N1CCC2(CCCN2Cc2cncs2)CC1 [Example 225, 1,1,1,3,3,3-Hexafluoropropan-2-yl 1-(thiazol-5-ylmethyl)-1,8-diazaspiro [4.5]decane-8-carboxylate]
inhibition at 1 µM [2]: > 75%

O=C(OC(C(F)(F)F)C(F)(F)F)N1CCC2(CCN(Cc3ccncn3)C2)CC1 [Example 74, 1,1,1,3,3,3-Hexafluoropropan-2-yl 2-(pyrimidin-4-ylmethyl)-2,8-diazaspiro[4.5] decane-8-carboxylate]
inhibition at 1 µM [2]: > 75% | IC50 [2]: < 0.1 µM

O=C(OC(C(F)(F)F)C(F)(F)F)N1CCC2(CCCN2Cc2cc3cc(Cl)ccc3[nH]2)CC1 [Example 224, 1,1,1,3,3,3-Hexafluoropropan-2-yl 1-((5-chloro-1H-indol-2-yl)methyl)-1,8-diazaspiro[4.5]decane-8-carboxylate]
inhibition at 1 µM [2]: > 75% | IC50 [2]: < 0.1 µM

Cc1c(CN(C)C2(C)CCN(C(=O)OC(C(F)(F)F)C(F)(F)F)CC2)sc2ccccc12 [Example 50, 1,1,1,3,3,3-Hexafluoropropan-2-yl 4-methyl-4-(methyl((3-methylbenzo[b]thiophen-2-yl)methyl)amino) piperidine-1-carboxylate]
inhibition at 1 µM [2]: > 75% | IC50 [2]: 0.1 to 1 µM

O=C(OC(C(F)(F)F)C(F)(F)F)N1CCC2(CCN(Cc3ccccn3)C2)CC1 [Example 73, 1,1,1,3,3,3-Hexafluoropropan-2-yl 2-(pyridin-2-ylmethyl)-2,8-diazaspiro [4.5]decane-8-carboxylate]
inhibition at 1 µM [2]: > 75% | IC50 [2]: 0.1 to 1 µM

O=C(OC(C(F)(F)F)C(F)(F)F)N1CCC2(CCCN2C(=O)c2cc3ccc(F)cc3s2)CC1 [Example 103, 1,1,1,3,3,3-Hexafluoropropan-2-yl 1-(6-fluorobenzo[b]thiophene-2-carbonyl)-1,8-diazaspiro[4.5] decane-8-carboxylate]
inhibition at 1 µM [2]: > 75%

O=C(OC(C(F)(F)F)C(F)(F)F)N1CCC2(CCN(Cc3ncccn3)C2)CC1 [Example 65, 1,1,1,3,3,3-Hexafluoropropan-2-yl 2-(pyrimidin-2-ylmethyl)-2,8-diazaspiro[4.5] decane-8-carboxylate]
inhibition at 1 µM [2]: > 75%

CC(C)(C)c1cc(CN2CCC3(CCN(C(=O)OC(C(F)(F)F)C(F)(F)F)CC3)C2)n(-c2ccccc2Cl)n1 [Example 217, 1,1,1,3,3,3-Hexafluoropropan-2-yl 2-((3-(t-butyl)-1-(2-chlorophenyl)-1H-pyrazol-5-yl)methyl)-2,8-diazaspiro[4.5]decane-8-carboxylate]
inhibition at 1 µM [2]: > 75% | IC50 [2]: < 0.1 µM

O=C(OC(C(F)(F)F)C(F)(F)F)N1CCC2(CCCN2C(=O)c2sc3ccccc3c2Cl)CC1 [Example 97, 1,1,1,3,3,3-Hexafluoropropan-2-yl 1-(3-chlorobenzo[b]thiophene-2-carbonyl)-1,8-diazaspiro[4.5] decane-8-carboxylate]
inhibition at 1 µM [2]: > 75%
